Data reported in PMC11157491, “Novel Alaninamide Derivatives with Drug-like Potential for Development as Antiseizure and Antinociceptive Therapies—In Vitro and In Vivo Characterization” (ACS Chemical Neuroscience, 2024).

Columns and labels:
mice [1] = assay: 6 Hz (44 mA) model of pharmacoresistant seizures; assay type: in vivo; conditions: Mus musculus, ip, pretreatment 0.5 h
Protocol: Based on the promising pharmacological data for 26 and 28, and especially potent protection in the 6 Hz (32 mA) seizure model, both compounds were tested subsequently in the 6 Hz seizure model, applying a higher current intensity of 44 mA (Table 3). Importantly, this test is recognized as one of the key animal models of pharmacoresistant seizures, utilized in the early stage of new ASMs’ development.
(§1) In the initial screening studies, four mice per group were randomly assigned to each experimental group (each mouse was used only once). To evaluate the ED50 or TD50 values, four groups consisting of eight animals were injected with various doses of tested compounds. The protective indexes (PIs) for the compounds investigated and reference ASMs were calculated by dividing the TD50 value, as determined in the chimney test, by the respective ED50 value, as determined in the MES, scPTZ, or 6 Hz (32 or 44 mA) tests (PI = TD50/ED50). The PIs are a measure of the potential therapeutic window of the tested agent.
All substances were suspended in Tween 80 (1% aqueous solution) and administered i.p. as a single injection at a dose of 10 mL/kg. On each day of experimentation, fresh solutions were prepared. […]

[2] = system: human liver microsomes (HLMs); assay: Metabolic stability in human liver microsomes; assay type: in vitro ADME
Description: Molecular mass Molecular mass of the
Substrate (m/z) metabolite (m/z) Metabolic pathway
* Reference unstable drug; metabolic stability determined using the same procedure published previously

TRPV1 (VR1) (h) = target: T1, TRPV1 (VR1) (h) (Homo sapiens, UniProt Q8NER1); assay: TRPV1 antagonist effect functional assay; assay type: cell-based; conditions: 10 μM, human recombinant CHO cells; read-out: % inhibition of control agonist response
T1 construct: Eurofins (contract assay)
T1 sequence (Q8NER1 whole entry): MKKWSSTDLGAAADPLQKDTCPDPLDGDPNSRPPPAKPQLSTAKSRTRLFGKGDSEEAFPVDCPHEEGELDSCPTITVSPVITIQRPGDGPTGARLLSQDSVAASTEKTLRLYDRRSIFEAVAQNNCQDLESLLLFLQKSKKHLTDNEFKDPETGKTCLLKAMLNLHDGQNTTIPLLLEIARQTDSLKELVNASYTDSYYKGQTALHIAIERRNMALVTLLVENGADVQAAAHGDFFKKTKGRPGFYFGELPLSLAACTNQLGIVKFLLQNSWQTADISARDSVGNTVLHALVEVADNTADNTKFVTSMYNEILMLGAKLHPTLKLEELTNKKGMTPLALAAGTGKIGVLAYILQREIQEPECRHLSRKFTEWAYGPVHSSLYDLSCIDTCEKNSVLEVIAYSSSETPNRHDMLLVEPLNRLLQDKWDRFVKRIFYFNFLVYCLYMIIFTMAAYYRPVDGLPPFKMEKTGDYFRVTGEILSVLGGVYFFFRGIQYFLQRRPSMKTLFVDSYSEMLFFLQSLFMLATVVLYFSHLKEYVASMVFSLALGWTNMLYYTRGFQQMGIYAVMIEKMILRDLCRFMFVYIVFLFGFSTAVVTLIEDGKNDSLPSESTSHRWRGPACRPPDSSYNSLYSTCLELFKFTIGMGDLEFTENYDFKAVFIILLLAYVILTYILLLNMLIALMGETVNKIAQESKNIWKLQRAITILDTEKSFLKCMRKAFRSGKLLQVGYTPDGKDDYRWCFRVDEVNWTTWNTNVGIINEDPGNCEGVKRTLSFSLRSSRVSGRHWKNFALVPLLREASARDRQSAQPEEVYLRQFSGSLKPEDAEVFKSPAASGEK
Protocol: For many years, the TRPV1 channel, permeable to calcium and sodium ions, has been recognized as a promising molecular target for novel analgesics.[19] […] Therefore, bearing in mind the involvement of TRPV1 in pain sensation and potentially in seizure induction, in the next step of the in vitro studies, the TRPV1 antagonist activity was determined for all compounds obtained (Table 6).
(§2) Binding/functional studies were carried out commercially in Eurofins Laboratories (Poitiers, France) and Eurofins Panlabs Discovery Services Taiwan, Ltd. (New Taipei City, Taiwan) using testing procedures that were reported previously (for details, see Table S2).
(§3) Table S2. Radioligand binding and functional assays. […]
TRPV1 (VR1) (h) (antagonist effect) […]
(§4) Assays were performed commercially in Eurofins Laboratories ( Poitiers, France) or Eurofins Panlabs Discovery Services
(§5) Taiwan, Ltd. (New Taipei City, Taiwan).

mice [3] = assay: Subcutaneous pentylenetetrazole (scPTZ) seizure test; assay type: in vivo; conditions: 100 mg/kg i.p.; for scPTZ: number of mice protected/number of mice tested: 0.5 h
Description: (§6) These parameters were then used to calculate the protective indexes (PIs, PI = TD50/ED50), which describe the therapeutics window of potential drug candidates. The ED50, TD50, and PI values for the tested compounds together with data of their chemical prototypes KA-11 and KJ-5 and reference ASMs are summarized in Table 2.
as §1
(§7) All substances were suspended in Tween 80 (1% aqueous solution) and administered i.p. as a single injection at a dose of 10 mL/kg. On each day of experimentation, fresh solutions were prepared. The detailed in vivo procedures are described elsewhere: the maximal electroshock seizure test (MES),[60] the subcutaneous pentylenetetrazole seizure test (scPTZ),[61] the 6 Hz psychomotor seizure model (32 and 44 mA),[62] and the chimney test.[63] The reference ASMs were purchased from commercial suppliers: VPA (Sigma-Aldrich, St. Louis, MO), LCS, and LEV (UCB Pharma, Braine l’Alleud, Belgium).

mice [4] = assay: Maximal electroshock (MES) seizure test; assay type: in vivo; conditions: for responders at 100 mg/kg / ED50: Mus musculus, ip; for responders at 100 mg/kg: read-out: MES: number of mice protected/number of mice tested (converted); for ED50: mice, pretreatment 0.5 h
Description: Identification and profiling of new ASM candidate compounds are still largely based on predictive animal models of seizures/epilepsy, while a range of in silico and in vitro approaches (i.e., molecular modeling or high throughput screening, etc.) are increasingly used in the early stages of ASM discovery.[31] The Epilepsy Therapy Screening Program (ETSP) of the National Institute of Neurological Disorders and Stroke (NIH, Bethesda, MD) has enabled the discovery of several approved ASMs by focusing on the in vivo testing of compounds synthesized by both academic laboratories and industry.[32] The ETSP provides a broad panel of seizure tests (ca. 30 rodent models), but a subset of them is used for the initial screening of new compounds with potential antiseizure activity. The routinely used seizure models include: (i) the MES test, which is an experimental model of tonic–clonic seizures, (ii) the 6 Hz model (32 mA) of focal seizures, and (iii) the scPTZ model of generalized absence or myoclonic seizures.[33],[34] Consequently, in the current studies, all final compounds 21–36 and 45–48 were initially studied in the MES and the 6 Hz (32 mA) seizure models after intraperitoneal (i.p.) administration at a screening dose of 100 mg/kg in mice at a time point of 0.5 h (the screening group consisted of four mice, and the results obtained are summarized in Table S1).
as §6
The adult male Albino Swiss mice weighed between 22 and 26 g were used in the in vivo studies. They were housed under standardized housing conditions in colony cages and had free access to food as well as tap water. The animals were left to adapt under laboratory conditions for 7 days. All procedures involving animals and their care were performed in accordance with the current European Community and Polish legislation on animal experimentation.
as §1, §7

[5] = target: T2, Cav1.2 (h) calcium ion channel (Homo sapiens, UniProt Q13936); assay: Cav1.2 cell-based antagonist calcium flux assay; conditions: HEK293, human recombinant HEK-293 cell, read-out: % inhibition of control agonist response
T2 construct: Eurofins (contract assay)
T2 sequence (Q13936 whole entry): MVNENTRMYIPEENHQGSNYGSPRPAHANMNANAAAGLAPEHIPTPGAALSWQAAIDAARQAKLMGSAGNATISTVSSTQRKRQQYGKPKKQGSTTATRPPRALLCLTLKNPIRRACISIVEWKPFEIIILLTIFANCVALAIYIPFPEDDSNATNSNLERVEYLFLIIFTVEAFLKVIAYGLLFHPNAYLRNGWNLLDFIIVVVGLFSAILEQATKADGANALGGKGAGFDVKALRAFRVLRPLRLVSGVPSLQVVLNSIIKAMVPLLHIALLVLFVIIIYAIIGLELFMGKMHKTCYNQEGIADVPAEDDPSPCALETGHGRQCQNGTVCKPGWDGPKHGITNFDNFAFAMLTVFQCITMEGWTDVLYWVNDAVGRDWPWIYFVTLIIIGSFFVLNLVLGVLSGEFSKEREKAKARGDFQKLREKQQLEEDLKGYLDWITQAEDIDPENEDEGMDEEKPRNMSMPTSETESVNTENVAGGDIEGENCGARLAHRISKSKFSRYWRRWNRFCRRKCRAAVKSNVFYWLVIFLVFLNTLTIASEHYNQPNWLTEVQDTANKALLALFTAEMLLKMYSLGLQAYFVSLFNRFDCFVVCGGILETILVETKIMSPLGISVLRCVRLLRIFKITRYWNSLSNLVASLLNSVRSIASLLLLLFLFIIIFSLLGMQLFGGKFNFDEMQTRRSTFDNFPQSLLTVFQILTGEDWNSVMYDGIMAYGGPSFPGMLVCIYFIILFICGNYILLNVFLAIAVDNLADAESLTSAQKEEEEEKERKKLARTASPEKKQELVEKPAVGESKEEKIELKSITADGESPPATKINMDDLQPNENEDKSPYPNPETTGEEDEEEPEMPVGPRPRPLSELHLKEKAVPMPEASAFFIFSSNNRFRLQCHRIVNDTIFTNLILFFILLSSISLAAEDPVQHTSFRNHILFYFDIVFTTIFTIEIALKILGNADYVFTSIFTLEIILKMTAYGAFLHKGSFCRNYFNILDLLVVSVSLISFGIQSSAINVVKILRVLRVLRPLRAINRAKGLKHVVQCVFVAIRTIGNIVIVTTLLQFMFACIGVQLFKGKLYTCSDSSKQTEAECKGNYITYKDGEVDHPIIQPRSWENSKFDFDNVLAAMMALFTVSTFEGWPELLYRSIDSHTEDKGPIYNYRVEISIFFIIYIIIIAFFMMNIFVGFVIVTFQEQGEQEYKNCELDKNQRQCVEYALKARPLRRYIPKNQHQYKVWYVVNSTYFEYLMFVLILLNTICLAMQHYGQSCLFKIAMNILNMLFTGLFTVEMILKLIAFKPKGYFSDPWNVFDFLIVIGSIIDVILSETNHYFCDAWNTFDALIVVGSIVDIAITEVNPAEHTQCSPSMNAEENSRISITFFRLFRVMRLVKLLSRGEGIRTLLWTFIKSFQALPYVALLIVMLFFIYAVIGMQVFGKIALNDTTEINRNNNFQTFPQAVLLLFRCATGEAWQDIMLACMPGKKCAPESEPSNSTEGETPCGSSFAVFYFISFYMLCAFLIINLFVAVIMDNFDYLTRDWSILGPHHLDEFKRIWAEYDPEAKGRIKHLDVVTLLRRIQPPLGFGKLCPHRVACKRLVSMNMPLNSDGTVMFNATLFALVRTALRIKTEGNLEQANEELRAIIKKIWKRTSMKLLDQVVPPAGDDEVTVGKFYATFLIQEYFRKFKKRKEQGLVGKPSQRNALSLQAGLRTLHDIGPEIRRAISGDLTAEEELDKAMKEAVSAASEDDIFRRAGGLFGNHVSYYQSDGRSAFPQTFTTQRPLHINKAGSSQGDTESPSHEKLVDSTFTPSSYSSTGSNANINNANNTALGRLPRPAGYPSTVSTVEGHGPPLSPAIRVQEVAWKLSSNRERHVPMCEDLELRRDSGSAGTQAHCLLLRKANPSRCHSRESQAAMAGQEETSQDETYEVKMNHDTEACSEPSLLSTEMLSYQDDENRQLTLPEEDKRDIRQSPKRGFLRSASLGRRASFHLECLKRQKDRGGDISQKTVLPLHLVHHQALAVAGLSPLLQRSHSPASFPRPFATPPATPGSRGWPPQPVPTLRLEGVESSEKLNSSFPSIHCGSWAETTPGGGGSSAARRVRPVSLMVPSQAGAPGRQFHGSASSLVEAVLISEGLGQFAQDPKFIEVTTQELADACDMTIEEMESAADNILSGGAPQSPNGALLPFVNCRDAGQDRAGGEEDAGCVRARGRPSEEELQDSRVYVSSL
T2 sequence (Q08289 whole entry partner): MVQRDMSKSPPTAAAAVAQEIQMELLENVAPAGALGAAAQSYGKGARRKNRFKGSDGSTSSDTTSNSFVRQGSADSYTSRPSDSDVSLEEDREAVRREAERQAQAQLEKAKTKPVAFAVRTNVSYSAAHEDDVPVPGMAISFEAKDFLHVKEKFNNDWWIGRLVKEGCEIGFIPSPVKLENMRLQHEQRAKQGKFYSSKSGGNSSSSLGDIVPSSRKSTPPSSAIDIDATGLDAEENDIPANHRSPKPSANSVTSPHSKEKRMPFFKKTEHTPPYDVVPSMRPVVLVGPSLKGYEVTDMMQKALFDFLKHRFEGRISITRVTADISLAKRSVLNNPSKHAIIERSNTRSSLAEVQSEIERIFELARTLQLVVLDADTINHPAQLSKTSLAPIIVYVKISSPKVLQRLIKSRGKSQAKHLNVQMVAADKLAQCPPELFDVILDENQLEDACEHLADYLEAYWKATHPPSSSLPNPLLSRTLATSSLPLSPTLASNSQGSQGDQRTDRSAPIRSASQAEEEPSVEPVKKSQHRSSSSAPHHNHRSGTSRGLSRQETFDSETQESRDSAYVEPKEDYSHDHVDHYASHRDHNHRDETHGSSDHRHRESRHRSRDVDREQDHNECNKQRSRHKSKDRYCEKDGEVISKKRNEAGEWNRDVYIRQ
T2 sequence (P54289 25-956 partner limits assumed): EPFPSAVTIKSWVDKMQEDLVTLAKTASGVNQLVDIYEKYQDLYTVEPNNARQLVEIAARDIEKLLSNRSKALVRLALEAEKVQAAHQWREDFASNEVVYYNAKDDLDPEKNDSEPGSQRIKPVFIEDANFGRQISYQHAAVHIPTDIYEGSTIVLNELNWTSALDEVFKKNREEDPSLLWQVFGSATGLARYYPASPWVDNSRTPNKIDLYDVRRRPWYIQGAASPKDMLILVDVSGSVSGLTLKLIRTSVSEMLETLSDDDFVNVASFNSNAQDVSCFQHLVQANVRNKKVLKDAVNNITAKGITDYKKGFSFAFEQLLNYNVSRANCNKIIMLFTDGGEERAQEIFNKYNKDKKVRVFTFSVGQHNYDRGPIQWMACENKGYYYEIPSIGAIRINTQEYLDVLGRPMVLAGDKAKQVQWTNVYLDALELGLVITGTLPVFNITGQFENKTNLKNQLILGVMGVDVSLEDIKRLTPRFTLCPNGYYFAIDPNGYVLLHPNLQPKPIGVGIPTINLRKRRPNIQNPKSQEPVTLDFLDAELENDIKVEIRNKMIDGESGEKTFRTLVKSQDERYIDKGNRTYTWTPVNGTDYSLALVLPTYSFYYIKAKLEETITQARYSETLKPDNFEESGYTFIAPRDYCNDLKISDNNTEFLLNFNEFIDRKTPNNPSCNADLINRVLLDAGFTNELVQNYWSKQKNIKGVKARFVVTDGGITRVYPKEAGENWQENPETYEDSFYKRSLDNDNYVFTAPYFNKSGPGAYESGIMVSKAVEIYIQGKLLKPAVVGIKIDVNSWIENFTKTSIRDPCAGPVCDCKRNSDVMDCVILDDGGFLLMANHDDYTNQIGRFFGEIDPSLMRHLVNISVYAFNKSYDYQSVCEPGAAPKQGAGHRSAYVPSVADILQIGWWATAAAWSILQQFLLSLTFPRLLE
T2 sequence (P54289 957-1103 partner limits assumed): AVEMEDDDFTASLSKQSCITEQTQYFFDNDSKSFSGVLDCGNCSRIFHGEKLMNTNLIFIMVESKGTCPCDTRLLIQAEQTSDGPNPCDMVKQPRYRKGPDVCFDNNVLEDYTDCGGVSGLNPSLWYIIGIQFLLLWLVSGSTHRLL
Protocol: Importantly, sodium or calcium conductance is often associated with the pathophysiology of epilepsy as well as neuropathic pain.[46]−[50] Therefore, both sodium and calcium ion channels are well-established molecular targets for structurally diverse ASMs such as LCS, lamotrigine, carbamazepine, oxcarbazepine, etc.[51] Consequently, we carried out binding and/or functional studies toward the sodium channel (site 2) and calcium Cav1.2 channel at high concentrations (100 μM) of 26 and 28 (Table 5). […] Next, 26 and 28 due to the presence of the phenylpiperazine moiety, which is a well-recognized pharmacophore for serotoninergic receptor (5-HTxR) ligands,[52] were evaluated for their influence on 5-HT2CR, where stimulation plays a key role for the antiseizure activity of lorcaserin (one of the newest ASMs).[6]
as §2, §3
Cav1.2 (L-type) (h) calcium ion channel cell-based antagonist calcium flux assay […]
as §4, §5

[6] = system: human serum albumin (HSA) and α1-acid glycoprotein (AGP)
Protocol: The plasma protein binding: human serum albumin (HSA) and α1-acid glycoprotein (AGP) was evaluated by the commercial TRANSIL^XL PPB assay.

Row | SMILES | ED50 (mice [1]) [mg/kg] | number of metabolites found after incubation with HLMs [2] | metabolic pathway of metabolite M1 ([2]; MS supported by MetaSite) | metabolic pathway of metabolite M2 ([2]; MS supported by MetaSite) | inhibition at 10 µM (TRPV1 (VR1) (h)) [%] | protection in scPTZ screening (mice [3]) [%] | scPTZ: number of mice protected/number of mice tested (mice [3]) | antiseizure protection in MES screening (mice [4]; 100 mg/kg i.p., 0.5 h, four mice) [%] | responders at 100 mg/kg (mice [4]; 100 mg/kg i.p., 0.5 h) [%] | ED50 (mice [4]) [mg/kg] | inhibition at 100 µM [5] [%] | plasma protein binding—KD [6] [mM] | metabolic pathway of metabolite M3 ([2]; MS supported by MetaSite)
1 | CC(=O)NC(C)C(=O)N1CCN(c2cccc(C(F)(F)F)c2)CC1 (stereo not drawn) [Compound 26, N-(1-oxo-1-(4-(3-(Trifluoromethyl)phenyl)piperazin-1-yl)propan-2-yl)acetamide] | 29.9 | two | dehydrogenation and oxidation | dehydrogenation and oxidation | -4.9 | 25 | 1/4 | 100 | 100 | 64.3 | 7 | 1.67 | 
2 | CC(=O)NC(C)C(=O)N1CCN(c2cccc(OC(F)(F)F)c2)CC1 (stereo not drawn) [Compound 28, N-(1-oxo-1-(4-(3-(Trifluoromethoxy)phenyl)piperazin-1-yl)propan-2-yl)acetamide] | 29.5 | three | double dehydrogenation | hydroxylation | 6.5 | 25 | 1/4 |  | 100 | 34.9 | -7.9 | 1.26 | double dehydrogenation
